Patent publication US7396837B2, “Antitumoral analogs of lamellarins” (Pharma Mar, S.A.U., priority 2002, dated 2008)

What was measured:
K-562 = test: SRB colorimetric cell growth inhibition assay, K-562; assay type: cell-based; conditions: Homo sapiens, K562, K-562
Summary of the method: (§1)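 Tested samples remained on human cancer cell cultures throughout the incubation; viable biomass was then stained with SRB and read colorimetrically.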

A-549 = test: SRB colorimetric cell growth inhibition assay, A-549; assay type: cell-based; conditions: Homo sapiens, A549, A-549
Summary of the method: as §1

SK-MEL-28 = test: SRB colorimetric cell growth inhibition assay, SK-MEL-28; assay type: cell-based; conditions: Homo sapiens, SK-MEL-28, MEL-28
Summary of the method: as §1

HT-29 = test: SRB colorimetric cell growth inhibition assay, HT-29; assay type: cell-based; conditions: Homo sapiens, HT-29, HT-29
Summary of the method: as §1

LoVo = test: SRB colorimetric cell growth inhibition assay, LoVo; assay type: cell-based; conditions: Homo sapiens, LoVo
Summary of the method: as §1

LoVo-Dox = test: SRB colorimetric cell growth inhibition assay, LoVo-Dox (MDR); assay type: cell-based; conditions: Homo sapiens, LOVO-DOX
Summary of the method: as §1

DU-145 = test: SRB colorimetric cell growth inhibition assay, DU-145; assay type: cell-based; conditions: Homo sapiens, DU-145, DU-145
Summary of the method: as §1

LNCaP = test: SRB colorimetric cell growth inhibition assay, LNCaP; assay type: cell-based; conditions: Homo sapiens, LNCaP, LN-caP
Summary of the method: as §1

SK-BR-3 = test: SRB colorimetric cell growth inhibition assay, SK-BR-3; assay type: cell-based; conditions: Homo sapiens, SK-BR-3, SK-BR-3
Summary of the method: as §1

IGROV = test: SRB colorimetric cell growth inhibition assay, IGROV; assay type: cell-based; conditions: Homo sapiens, IGROV
Summary of the method: as §1

IGROV-ET = test: SRB colorimetric cell growth inhibition assay, IGROV-ET (ET-743 resistant); assay type: cell-based; conditions: Homo sapiens, IGROV-ET
Summary of the method: as §1

PANC-1 = test: SRB colorimetric cell growth inhibition assay, PANC-1; assay type: cell-based; conditions: Homo sapiens, PANC-1, PANC-1
Summary of the method: as §1

human topoisomerase I = target: T1, human topoisomerase I (Homo sapiens, UniProt P11387); test: Topoisomerase I DNA relaxation assay (supercoiled plasmid DNA); assay type: biochemical; conditions: supercoiled plasmid DNA, each compound tested at 1 μM, agarose gel with ethidium bromide
T1 sequence (P11387 1-765): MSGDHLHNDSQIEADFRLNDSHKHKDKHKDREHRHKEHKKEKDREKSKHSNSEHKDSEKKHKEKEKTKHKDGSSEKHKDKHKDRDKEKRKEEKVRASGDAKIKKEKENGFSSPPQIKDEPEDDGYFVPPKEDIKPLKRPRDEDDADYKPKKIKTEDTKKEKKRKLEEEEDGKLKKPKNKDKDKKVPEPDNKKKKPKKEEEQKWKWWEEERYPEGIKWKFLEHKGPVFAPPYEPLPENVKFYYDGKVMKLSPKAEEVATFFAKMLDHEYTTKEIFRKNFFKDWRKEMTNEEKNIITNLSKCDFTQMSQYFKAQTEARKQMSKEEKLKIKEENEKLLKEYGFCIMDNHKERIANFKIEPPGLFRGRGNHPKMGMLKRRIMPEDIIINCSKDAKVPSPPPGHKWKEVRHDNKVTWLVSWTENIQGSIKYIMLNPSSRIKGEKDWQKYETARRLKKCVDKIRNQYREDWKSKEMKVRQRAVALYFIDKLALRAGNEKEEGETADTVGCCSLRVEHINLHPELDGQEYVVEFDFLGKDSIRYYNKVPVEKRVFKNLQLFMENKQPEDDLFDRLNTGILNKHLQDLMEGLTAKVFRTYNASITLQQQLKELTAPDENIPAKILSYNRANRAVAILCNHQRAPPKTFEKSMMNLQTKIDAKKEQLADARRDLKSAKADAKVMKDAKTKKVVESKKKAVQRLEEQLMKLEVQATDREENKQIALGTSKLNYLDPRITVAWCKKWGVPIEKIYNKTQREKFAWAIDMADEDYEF
Summary of the method: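 Test compounds (1 μM each) were present during topoisomerase I relaxation of supercoiled plasmid DNA. Relaxation was assessed on ethidium bromide-stained agarose gels.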

COc1cc(-c2c3c4cc(OC)c(OC(=O)[C@H](N)C(C)C)cc4oc(=O)c3n3ccc4cc(OC(=O)[C@H](N)C(C)C)c(OC)cc4c23)ccc1OC(=O)[C@H](N)C(C)C [Compound 17]
GI50 (K-562; GI=growth inhibition, read-out: GI50 K-562): 53.6 nM | CC50 (K-562; cell killing (cytotoxic effect), read-out: LC50 K-562): 2500 nM | IC (TGI) (K-562; total growth inhibition (cytostatic effect), read-out: TGI K-562): 0.277 µM | GI50 (A-549; GI=growth inhibition, read-out: GI50 A-549): 207 nM | CC50 (A-549; cell killing (cytotoxic effect), read-out: LC50 A-549): 8.48 µM | IC (TGI) (A-549; total growth inhibition (cytostatic effect), read-out: TGI A-549): 0.663 µM | GI50 (SK-MEL-28; GI=growth inhibition, read-out: GI50 MEL-28): 51.8 nM | CC50 (SK-MEL-28; cell killing (cytotoxic effect), read-out: LC50 MEL-28): 766 nM | IC (TGI) (SK-MEL-28; total growth inhibition (cytostatic effect), read-out: TGI MEL-28): 0.171 µM | GI50 (HT-29; GI=growth inhibition, read-out: GI50 HT-29): 342 nM | CC50 (HT-29; cell killing (cytotoxic effect), read-out: LC50 HT-29): 8.78 µM | IC (TGI) (HT-29; total growth inhibition (cytostatic effect), read-out: TGI HT-29): 0.686 µM | GI50 (LoVo; GI=growth inhibition, read-out: GI50 LOVO): 216 nM | CC50 (LoVo; cell killing (cytotoxic effect), read-out: LC50 LOVO): 816 nM | IC (TGI) (LoVo; total growth inhibition (cytostatic effect), read-out: TGI LOVO): 0.42 µM | GI50 (LoVo-Dox; GI=growth inhibition, read-out: GI50 LOVO-DOX): 384 nM | CC50 (LoVo-Dox; cell killing (cytotoxic effect), read-out: LC50 LOVO-DOX): 5.29 µM | IC (TGI) (LoVo-Dox; total growth inhibition (cytostatic effect), read-out: TGI LOVO-DOX): 1.33 µM | GI50 (DU-145; GI=growth inhibition, read-out: GI50 DU-145): 48.7 nM | CC50 (DU-145; cell killing (cytotoxic effect), read-out: LC50 DU-145): 2300 nM | IC (TGI) (DU-145; total growth inhibition (cytostatic effect), read-out: TGI DU-145): 0.228 µM | GI50 (LNCaP; GI=growth inhibition, read-out: GI50 LN-caP): 132 nM | CC50 (LNCaP; cell killing (cytotoxic effect), read-out: LC50 LN-caP): 599 nM | IC (TGI) (LNCaP; total growth inhibition (cytostatic effect), read-out: TGI LN-caP): 0.281 µM | GI50 (SK-BR-3; GI=growth inhibition, read-out: GI50 SK-BR-3): 80.3 nM | CC50 (SK-BR-3; cell killing (cytotoxic effect), read-out: LC50 SK-BR-3): 1220 nM | IC (TGI) (SK-BR-3; total growth inhibition (cytostatic effect), read-out: TGI SK-BR-3): 0.286 µM | GI50 (IGROV; GI=growth inhibition, read-out: GI50 IGROV): 105 nM | CC50 (IGROV; cell killing (cytotoxic effect), read-out: LC50 IGROV): 4.93 µM | IC (TGI) (IGROV; total growth inhibition (cytostatic effect), read-out: TGI IGROV): 0.405 µM | GI50 (IGROV-ET; GI=growth inhibition, read-out: GI50 IGROV-ET): 162 nM | CC50 (IGROV-ET; cell killing (cytotoxic effect), read-out: LC50 IGROV-ET): 8.78 µM | IC (TGI) (IGROV-ET; total growth inhibition (cytostatic effect), read-out: TGI IGROV-ET): 0.544 µM | GI50 (PANC-1; GI=growth inhibition, read-out: GI50 PANC-1): 206 nM | CC50 (PANC-1; cell killing (cytotoxic effect), read-out: LC50 PANC-1): 8.53 µM | IC (TGI) (PANC-1; total growth inhibition (cytostatic effect), read-out: TGI PANC-1): 1.52 µM | stimulation of DNA cleavage by topoisomerase I / inhibition of topoisomerase I (nicked DNA band) in DNA relaxation assay (human topoisomerase I): stimulated DNA cleavage by the enzyme
